This note sets out measurements from patent US8217035B2, “Pyrimidine derivatives used as PI-3-kinase inhibitors” (Novartis AG, priority 2006, dated 2012).

One assay has as its target PI3 kinase alpha (Homo sapiens, UniProt P42336). As to the kind of experiment: PI3K ATP depletion assay (Biological Method 1, Assay 3; KinaseGlo luminescence). The class given is biochemical. To be noted: ATP depletion assay; read-out: PI3 Kinase Alpha, IC50. The essentials: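 Compound in DMSO was mixed with 10 nM PI3 kinase and 5 μg/mL phosphatidylinositol, and the reaction was started with 2 μM ATP. It ran to about 50% ATP depletion and was stopped with KinaseGlo.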

Assay [1] has as its system pSer473 Akt in A2780 cells. Briefly: pSer473 Akt assay to monitor PI3K pathway in A2780 cells (Biological Method 2, MSD). Format: cell-based. Conditions: Homo sapiens; inhibition of Akt phosphorylation, A2780 cells. As to the method:
In this method, an assay for measuring the PI3K-mediated pSer473-Akt status after treatment with representative inhibitor compounds of the invention is described.
A2780 cells were cultured in DMEM supplemented with 10% FBS. L-glutamine, sodium pyruvate, and antibiotics. Cells were plated in the same medium at a density of 15,000 cells per well into 96 well tissue culture plates, with outside wells vacant, and allowed to adhere overnight.
Test compounds supplied in DMSO were diluted further into DMSO at 500 times the desired final concentrations before dilution into culture media to 2 times the final concentrations. Equal volumes of 2× compounds were added to the cells in 96 well plates and incubated at 37° C. for one hour. The media and compounds were then removed, the plates chilled and cells lysed in a lysis buffer (150 mM NaCl, 20 mM Tris pH 7.5, 1 mM EDTA, 1 mM EGTA, 1% Triton X-100) supplemented with phosphatase and protease inhibitors. After thorough mixing, lysates were transferred to both pSer473Akt and total Akt assay plates from Meso Scale Discovery (MSD), and incubated overnight with shaking at 4° C.
The assays were read on a SECTOR Imager 6000 instrument (Meso Scale Discovery). Ratios of the signal from pSer473Akt and total Akt assays were used to correct for any variability and the percent inhibition of pSer473Akt from the total signal seen in cells treated with compound versus DMSO alone was calculated and used to determine EC50 values for each compound.

Assay [2] deals with A2780 ovarian cancer cells. Briefly: Cellular proliferation in A2780 cells, Cell Titer Glo (Biological Method 4). Format: cell-based. Conditions: Homo sapiens; ovarian cancer cell line A2780. The essentials:
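A2780 cells seeded at 1,000/well in DMEM with 10% FBS, at least 2 h before compound, then exposed 72 h at 37 °C, 5% CO2. Viable cells measured by Cell Titer Glo luminescence; EC50 calculated from duplicate conditions.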

pEC50, pIC50: −log10 of the molar value.

Sequence of PI3 kinase alpha (P42336 whole entry): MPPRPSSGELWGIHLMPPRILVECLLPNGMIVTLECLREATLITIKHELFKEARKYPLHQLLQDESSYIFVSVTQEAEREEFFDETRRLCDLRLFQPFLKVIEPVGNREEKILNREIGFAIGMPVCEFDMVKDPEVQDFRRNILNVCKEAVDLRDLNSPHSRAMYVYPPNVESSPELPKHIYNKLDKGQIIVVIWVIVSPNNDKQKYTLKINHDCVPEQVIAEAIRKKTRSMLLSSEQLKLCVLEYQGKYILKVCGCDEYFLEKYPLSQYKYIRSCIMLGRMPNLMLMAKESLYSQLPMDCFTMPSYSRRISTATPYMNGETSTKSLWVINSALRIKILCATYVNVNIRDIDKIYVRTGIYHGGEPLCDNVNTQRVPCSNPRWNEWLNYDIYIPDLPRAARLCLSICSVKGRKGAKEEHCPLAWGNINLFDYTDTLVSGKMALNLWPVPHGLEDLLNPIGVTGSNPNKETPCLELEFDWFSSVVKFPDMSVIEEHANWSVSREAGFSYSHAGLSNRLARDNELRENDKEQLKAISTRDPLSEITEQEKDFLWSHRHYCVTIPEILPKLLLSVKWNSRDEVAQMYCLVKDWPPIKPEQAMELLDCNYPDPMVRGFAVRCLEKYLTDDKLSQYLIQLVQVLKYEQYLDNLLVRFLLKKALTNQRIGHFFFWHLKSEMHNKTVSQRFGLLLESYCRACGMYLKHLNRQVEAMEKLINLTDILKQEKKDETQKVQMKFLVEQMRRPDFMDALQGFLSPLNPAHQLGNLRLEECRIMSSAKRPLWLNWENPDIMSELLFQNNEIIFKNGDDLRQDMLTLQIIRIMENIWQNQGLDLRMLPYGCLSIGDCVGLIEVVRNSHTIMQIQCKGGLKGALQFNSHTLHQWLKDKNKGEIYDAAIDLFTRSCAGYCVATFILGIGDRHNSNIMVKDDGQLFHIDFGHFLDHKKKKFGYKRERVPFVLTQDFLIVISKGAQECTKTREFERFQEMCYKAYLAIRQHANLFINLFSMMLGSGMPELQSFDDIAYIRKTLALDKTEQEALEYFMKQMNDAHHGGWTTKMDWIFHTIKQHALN
Sequence of PI3 kinase alpha (P27986 whole entry partner): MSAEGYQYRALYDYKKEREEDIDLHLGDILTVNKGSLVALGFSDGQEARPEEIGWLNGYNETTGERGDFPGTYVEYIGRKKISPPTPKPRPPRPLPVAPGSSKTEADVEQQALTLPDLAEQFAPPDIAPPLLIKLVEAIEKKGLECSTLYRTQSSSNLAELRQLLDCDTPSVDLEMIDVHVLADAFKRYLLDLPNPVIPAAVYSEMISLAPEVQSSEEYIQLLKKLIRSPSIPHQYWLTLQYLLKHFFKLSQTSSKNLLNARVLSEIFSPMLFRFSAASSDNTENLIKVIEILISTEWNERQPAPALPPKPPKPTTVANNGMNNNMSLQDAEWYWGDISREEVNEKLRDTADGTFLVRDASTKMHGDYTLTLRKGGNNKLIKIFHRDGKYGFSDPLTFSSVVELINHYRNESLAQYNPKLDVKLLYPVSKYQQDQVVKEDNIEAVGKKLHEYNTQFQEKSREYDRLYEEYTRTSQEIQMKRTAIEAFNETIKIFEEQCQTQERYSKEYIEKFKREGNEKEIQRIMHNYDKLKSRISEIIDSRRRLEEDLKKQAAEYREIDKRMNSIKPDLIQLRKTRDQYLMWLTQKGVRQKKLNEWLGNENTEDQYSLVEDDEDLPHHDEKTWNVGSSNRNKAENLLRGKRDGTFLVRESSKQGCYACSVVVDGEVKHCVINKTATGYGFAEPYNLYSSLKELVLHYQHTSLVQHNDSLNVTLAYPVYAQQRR

With `CS(=O)(=O)c1cccc(-c2cc(-c3cnc(N)cc3C#N)nc(N3CCOCC3)n2)c1` [Compound 92], the negative-log IC50 (pIC50) at PI3 kinase alpha was over 6.00. Further, the pEC50 in assay [1] and in assay [2] was over 6.00 in each case.

Turning to `CC(C)N1CCC(Oc2ccc(Nc3cc(-c4cnc(N)cc4C(F)(F)F)nc(N4CCOCC4)n3)cn2)C1` (stereo not drawn) [Compound 93], the pIC50 on PI3 kinase alpha was over 6.00. Moreover, the pEC50 in assay [1] and in assay [2] was over 6.00 throughout.

For `N#Cc1cc(N)ncc1-c1cc(Nc2ccncc2C(F)(F)F)nc(N2CCOCC2)n1` [Compound 94], the negative logarithm of the IC50 (pIC50) on PI3 kinase alpha was over 6.00. The negative logarithm of the EC50 (pEC50) in assay [1] and in assay [2] was over 6.00 in each case.

With `CS(=O)(=O)c1cccc(-c2cc(-c3cnc(N)cc3C(F)(F)F)nc(N3CCOCC3)n2)c1` [Compound 95], the pIC50 at PI3 kinase alpha was over 6.00. Also, the pEC50 in assay [1] and in assay [2] was over 6.00 in each case.

On to `Nc1ncc(-c2cc(OC3CCN(C(=O)OC4CCCC4)CC3)nc(N3CCOCC3)n2)c(N)n1` [Compound 97], for which the negative-log IC50 (pIC50) on PI3 kinase alpha was over 6.00. For the same compound, the negative-log EC50 (pEC50) in assay [1] and in assay [2] was over 6.00 in each case.

As for `CCc1c(Nc2cnc3ccccc3c2)nc(N2CCOCC2)nc1-c1cnc(N)nc1` [Compound 98], the pIC50 on PI3 kinase alpha is over 6.00. In addition, the negative-log EC50 (pEC50) in assay [1] and in assay [2] was over 6.00 each time.

In the case of `CC(=O)N1CCC(Oc2cc(-c3cnc(N)nc3N)nc(N3CCOCC3)n2)CC1` [Compound 99], on PI3 kinase alpha, the pIC50 is over 6.00. Further, the pEC50 in assay [1] and in assay [2] was over 6.00 each time.

Take `Nc1ncc(-c2cc(O[C@H]3CCOC3)nc(N3CCOCC3)n2)c(N)n1` [Compound 101]: the negative-log IC50 (pIC50) on PI3 kinase alpha was over 6.00. In addition, the pEC50 was over 6.00 in assay [1] and over 5.00 in assay [2].

Consider `CCOc1cc(Nc2cc(-c3ccc(N)nc3)nc(N3CCOCC3)n2)ccn1` [Compound 102], for which, on PI3 kinase alpha, the pIC50 was over 6.00. Moreover, the pEC50 in assay [1] and in assay [2] was over 6.00 in each case.

For the compound `Nc1ccc(-c2cc(-c3cccnc3NCCO)nc(N3CCOCC3)n2)cn1` [Compound 104], the negative-log IC50 (pIC50) at PI3 kinase alpha is over 6.00. The negative logarithm of the EC50 (pEC50) was over 6.00 in assay [1] and over 5.00 in assay [2].

`CS(=O)(=O)c1cccc(-c2cc(-c3cnc(N)[nH]c3=O)nc(N3CCOCC3)n2)c1` [Compound 105]: the negative logarithm of the IC50 (pIC50) on PI3 kinase alpha was over 6.00. In addition, the negative logarithm of the EC50 (pEC50) in assay [1] and in assay [2] was over 6.00 each time.

Regarding `CC(C)C(=O)N1CCC(Oc2cc(-c3cnc(N)nc3C(F)(F)F)nc(N3CCOCC3)n2)CC1` [Compound 106], the pIC50 at PI3 kinase alpha was over 6.00. The pEC50 in assay [1] and in assay [2] was over 6.00 each time.

Turning to `Nc1ncc(-c2cc(O[C@@H]3CCOC3)nc(N3CCOCC3)n2)c(N)n1` [Compound 108], the negative-log IC50 (pIC50) at PI3 kinase alpha was over 6.00. Moreover, the pEC50 in assay [1] and in assay [2] was over 6.00 each time.

`CS(=O)(=O)c1ccnc(Nc2cc(-c3cnc(N)cc3C(F)(F)F)nc(N3CCOCC3)n2)c1` [Compound 109]: the negative-log IC50 (pIC50) on PI3 kinase alpha is over 6.00. For the same compound, the pEC50 was over 6.00 in assay [1] and over 5.00 in assay [2].

As for `Cc1cc(Nc2cc(-c3cnc(N)cc3C(F)(F)F)nc(N3CCOCC3)n2)ccn1` [Compound 110], the negative logarithm of the IC50 (pIC50) at PI3 kinase alpha was over 6.00. For the same compound, the pEC50 in assay [1] and in assay [2] was over 6.00 each time.

As for `Nc1ncc(-c2cc(Nc3cccc(F)c3)nc(N3CCOCC3)n2)cn1` [Compound 111], the negative logarithm of the IC50 (pIC50) on PI3 kinase alpha was over 6.00. The pEC50 is over 6.00 in assay [1] and over 5.00 in assay [2].

As for `CS(=O)(=O)c1ccc(Nc2cc(-c3ccc(N)nc3)nc(N3CCOCC3)n2)cc1` [Compound 112], at PI3 kinase alpha, the negative-log IC50 (pIC50) is over 6.00. The negative logarithm of the EC50 (pEC50) in assay [1] was over 6.00; in assay [2] it was over 5.00.

For `Nc1cc(C(F)(F)F)c(-c2cc(N3CCOCC3Cc3ccccc3)nc(N3CCOCC3)n2)cn1` (stereo not drawn) [Compound 113], the negative logarithm of the IC50 (pIC50) at PI3 kinase alpha was over 6.00. Also, the negative logarithm of the EC50 (pEC50) was over 6.00 in assay [1] and over 5.00 in assay [2].

In the case of `CC(C)OC(=O)N1CCC(Oc2cc(-c3cnc(N)nc3C(F)(F)F)nc(N3CCOCC3)n2)CC1` [Compound 115], the pIC50 at PI3 kinase alpha is over 6.00. Besides, the pEC50 in assay [1] was over 6.00; in assay [2], over 5.00.

Consider `CN1CCC(Oc2ccc(Nc3cc(-c4cnc(N)cc4C(F)(F)F)nc(N4CCOCC4)n3)cn2)CC1` [Compound 116], for which the pIC50 on PI3 kinase alpha was over 6.00. For the same compound, the pEC50 was over 6.00 in assay [1] and over 5.00 in assay [2].

`COC(=O)N1CCC(Oc2cc(-c3cnc(N)cc3C(F)(F)F)nc(N3CCOCC3)n2)CC1` [Compound 117]: the pIC50 on PI3 kinase alpha was over 6.00. Besides, the results for the negative-log EC50 (pEC50) in assay [1] and in assay [2] were over 6.00 and over 5.00, respectively.

Take `N#Cc1cc(N)ncc1-c1cc(OC2CCOCC2)nc(N2CCOCC2)n1` [Compound 118]: on PI3 kinase alpha, the negative-log IC50 (pIC50) is over 6.00. In addition, the pEC50 in assay [1] and in assay [2] was over 6.00 throughout.

Turning to `CC(=O)N1CCC(Oc2cc(-c3cnc(N)nc3C(F)(F)F)nc(N3CCOCC3)n2)CC1` [Compound 119], on PI3 kinase alpha, the pIC50 is over 6.00. For the same compound, the negative logarithm of the EC50 (pEC50) in assay [1] and in assay [2] was over 6.00 throughout.

Consider `CS(=O)(=O)N1CCC(Oc2cc(-c3cnc(N)nc3N)nc(N3CCOCC3)n2)CC1` [Compound 120], for which the negative logarithm of the IC50 (pIC50) on PI3 kinase alpha is over 6.00. For the same compound, the pEC50 in assay [1] is over 6.00; in assay [2], over 5.00.

In the case of `Nc1ncc(-c2cc(-c3cnc(N)nc3C(F)(F)F)nc(N3CCOCC3)n2)c(C(F)(F)F)n1` [Compound 121], on PI3 kinase alpha, the negative-log IC50 (pIC50) is over 6.00. For the same compound, the negative logarithm of the EC50 (pEC50) in assay [1] and in assay [2] was over 6.00 in each case.

As to `Nc1ncc(-c2cc(OC3CCN(C(=O)c4ccccc4)CC3)nc(N3CCOCC3)n2)c(N)n1` [Compound 122], the pIC50 on PI3 kinase alpha was over 6.00. The pEC50 in assay [1] and in assay [2] was over 6.00 throughout.

With `Nc1ncc(-c2cc(Nc3ccc(F)cc3)nc(N3CCOCC3)n2)cn1` [Compound 123], the negative-log IC50 (pIC50) on PI3 kinase alpha is over 6.00. In addition, the pEC50 was over 6.00 in assay [1] and over 5.00 in assay [2].

Turning to `Nc1ncc(-c2cc(OC3CCN(C(=O)c4ccccc4)CC3)nc(N3CCOCC3)n2)c(C(F)(F)F)n1` [Compound 124], at PI3 kinase alpha, the pIC50 is over 6.00. Also, the pEC50 in assay [1] and in assay [2] was over 6.00 in each case.

For the compound `CS(=O)(=O)c1cccc(-c2cc(-c3cnc(N)nc3N)nc(N3CCOCC3)n2)c1` [Compound 125], the pIC50 at PI3 kinase alpha is over 6.00. In addition, the pEC50 in assay [1] and in assay [2] was over 6.00 throughout.

As for `CS(=O)(=O)N1CCC[C@@H](Oc2cc(-c3cnc(N)nc3N)nc(N3CCOCC3)n2)C1` [Compound 127], on PI3 kinase alpha, the pIC50 was over 6.00. Moreover, the pEC50 in assay [1] is over 6.00; in assay [2], over 5.00.

`CS(=O)(=O)c1ccc(Nc2cc(-c3cnc(N)cc3C(F)(F)F)nc(N3CCOCC3)n2)cn1` [Compound 128]: the pIC50 on PI3 kinase alpha was over 6.00. The pEC50 was over 6.00 in assay [1] and over 5.00 in assay [2].

Regarding `CC(C)N1CCC(Oc2cncc(-c3cc(-c4cnc(N)cc4C(F)(F)F)nc(N4CCOCC4)n3)c2)C1` (stereo not drawn) [Compound 129], the negative logarithm of the IC50 (pIC50) at PI3 kinase alpha is over 6.00. The values for the negative logarithm of the EC50 (pEC50) in assay [1] and in assay [2] were over 6.00 and over 5.00, respectively.

`Cc1cc(Nc2cc(-c3ccc(N)nc3)nc(N3CCOCC3)n2)ccn1` [Compound 130]: the negative-log IC50 (pIC50) on PI3 kinase alpha is over 6.00. The pEC50 in assay [1] and in assay [2] was over 6.00 each time.

By pIC50 is commonly meant −log10 of the IC50, conventionally taken in molar units. Usually pEC50 stands for −log10 of the EC50, conventionally taken in molar units. A higher pEC50 goes with a small EC50.
